Measured values published in patent US7390812B2, “N, N'-disubstituted piperazine compounds and their use as analgesics” (Gruenenthal GmbH, priority 2001, dated 2008).

What was measured:
[1] = tested on: binding site 2 of the sodium channel; assay: Binding investigations at sodium channel binding site 2 (BTX binding); conditions: 10 μM; rat cerebrocortex synaptosomes; [3H]-Batrachotoxinin A20 α-benzoate 10 nM; 37° C., 120 min
Experimental: Binding Investigations at Sodium Channel Binding Site 2
Binding site 2 of the sodium channel is the so-called batrachotoxin (BTX) binding site. [^3H]-Batrachotoxinin A20 α-benzoate (10 nM in the batch) was used as ligand. These ion channel particles (synaptosomes) were enriched from rat cerebrocortex after Gray and Whittaker (E. G. Gray and V. P. Whittaker (1962) J. Anat. 76, 79-88). The radioactivity measured in the presence of veratridine (0.3 mM in the batch) is defined as non-specific binding.
The assay conditions were as published by Pauwels, Leysen and Laduron (P. J. Pauwels, J. E. Leysen and P. M. Laduron (1986) Eur. J. Pharmacol. 124, 291-298). Incubation at 37° C. for 120 min.

[2] = target: T1, NA transporter (Rattus norvegicus, UniProt Q63380); assay: Noradrenaline reuptake inhibition (NA uptake inhibition) in synaptosomes; format: biochemical; conditions: synaptosomes from hypothalamus of male rat brains
T1 construct: synaptosomes were freshly isolated from rat brain regions; from tissue; host or cells: rat hypothalamus synaptosomes (P2 fraction)
Experimental: In order to be able to carry out these in vitro studies, synaptosomes were freshly isolated from rat brain regions. A so-called “P2” fraction was used, which was prepared according to the instructions given by Gray and Whittaker (E. G. Gray and V. P. Whittaker (1962) J. Anat. 76, 79-88).

T1 sequence (Q63380 1-617): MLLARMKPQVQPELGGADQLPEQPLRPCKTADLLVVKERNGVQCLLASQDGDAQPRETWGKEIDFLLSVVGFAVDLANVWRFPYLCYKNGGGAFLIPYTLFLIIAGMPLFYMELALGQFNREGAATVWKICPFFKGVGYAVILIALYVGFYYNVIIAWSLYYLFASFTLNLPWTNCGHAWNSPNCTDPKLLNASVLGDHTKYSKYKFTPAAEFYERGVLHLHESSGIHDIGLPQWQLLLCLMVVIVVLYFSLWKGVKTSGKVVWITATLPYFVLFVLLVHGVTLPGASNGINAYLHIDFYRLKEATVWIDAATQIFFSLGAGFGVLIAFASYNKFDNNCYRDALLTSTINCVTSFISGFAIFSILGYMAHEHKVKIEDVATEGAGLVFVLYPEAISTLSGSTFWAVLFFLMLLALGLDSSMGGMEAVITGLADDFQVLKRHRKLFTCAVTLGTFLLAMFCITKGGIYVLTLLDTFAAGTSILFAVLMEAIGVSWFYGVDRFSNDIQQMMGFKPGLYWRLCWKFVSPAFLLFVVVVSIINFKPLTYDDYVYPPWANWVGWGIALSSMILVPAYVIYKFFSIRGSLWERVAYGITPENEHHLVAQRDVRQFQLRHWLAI

| SMILES | BTX binding at 10 μM [%] inhibition [1] [%] | inhibition at 10 µM [2] [%] |
| --- | --- | --- |
| CN1CCN(CC2CCCCCC2(O)c2ccc(Cl)cc2)CC1 (stereo not shown) [1-(4-Chloro-phenyl)-2-(4-methyl-piperazin-1-ylmethyl)-cycloheptanol] | 69 | 70 |
| Cc1cc(C2(O)CCCCCC2CN2CCN(C)CC2)ccc1F (stereo not shown) [1-(4-Fluoro-3-methyl-phenyl)-2-(4-methyl-piperazin-1-ylmethyl)-cycloheptanol] | 69 | 66 |
| Cc1cc(C2(O)CCCCC2CN2CCN(C)CC2)ccc1F (stereo not shown) [1-(4-Fluoro-3-methyl-phenyl)-2-(4-methyl-piperazin-1-ylmethyl)-cyclohexanol] | 60 | 65 |
| Cc1cccc(C2(O)CCCCC2CN2CCN(C)CC2)c1 (stereo not shown) [2-(4-Methyl-piperazin-1-ylmethyl)-1-m-tolyl-cyclohexanol] | 58 | 44 |
| Cc1ccc(C2(O)CCCCC2CN2CCN(C)CC2)cc1 (stereo not shown) [2-(4-Methyl-piperazin-1-ylmethyl)-1-p-tolyl-cyclohexanol] | 53 | 75 |
| CN1CCN(CC2CCCCC2(O)CCc2ccccc2)CC1 (stereo not shown) [2-(4-Methyl-piperazin-1-ylmethyl)-1-phenethyl-cyclohexanol] | 65 | 71 |
| CN1CCN(CC2CCCCCCC2(O)CCc2ccccc2)CC1 (stereo not shown) [2-(4-Methyl-piperazin-1-ylmethyl)-1-phenethyl-cyclooctanol] | 78 | 61 |
| CN1CCN(CC2CCCCCC2(O)c2ccccc2)CC1 (stereo not shown) [2-(4-Methyl-piperazin-1-ylmethyl)-1-phenyl-cycloheptanol] | 63 | 50 |
| CCC(O)(c1ccc(C(C)(C)C)cc1)C(C)CN1CCN(c2cccc(Cl)c2)CC1 (stereo not shown) [3-(4-tert-Butyl-phenyl)-1-[4-(3-chloro-phenyl)-piperazin-1-yl]-2-methyl-pentan-3-ol] | – | 62 |
| CCC(O)(Cc1ccccc1)C(C)CN1CCN(c2cccc(Cl)c2)CC1 (stereo not shown) [3-Benzyl-1-[4-(3-chloro-phenyl)-piperazin-1-yl]-2-methyl-pentan-3-ol] | – | 55 |
| CCC(O)(CCc1ccccc1)C(C)CN1CCN(C)CC1 (stereo not shown) [3-Ethyl-2-methyl-1-(4-methyl-piperazin-1-yl)-5-phenyl-pentan-3-ol] | 74 | 88 |
| CCC(O)(C#Cc1ccccc1)C(C)CN1CCN(c2cccc(Cl)c2)CC1 (stereo not shown) [5-[4-(3-Chloro-phenyl)-piperazin-1-yl]-3-ethyl-4-methyl-1-phenyl-pent-1-yn-3-ol] | – | 46 |
| C=CC(O)(CC)C(C)CN1CCN(c2cccc(Cl)c2)CC1 (stereo not shown) [5-[4-(3-Chloro-phenyl)-piperazin-1-yl]-3-ethyl-4-methyl-pent-1-en-3-ol] | – | 53 |
